Patent publication US20250313563A1, “GLYCOGEN SYNTHASE KINASE 3 INHIBITORS AND USES THEREOF” (The Broad Institute, Inc., priority 2022, published 2025)
Where two headings read alike, the source gives them in different places.

Experiments:
[1] = target: GSK3α (GST-full length GSK3α) (Homo sapiens (Human), UniProt P49840); experiment: GSK3α TR-FRET kinase assay; format: biochemical
Procedure, shortened: (§1)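 In this time-resolved FRET format, kinase reactions contained 200 nM biotinylated, S645-phosphorylated glycogen synthase 631-650 peptide and either isoform-specific ATP (2 μM GSK3b, 4 μM GSK3α) or 1 mM ATP. They were quenched with EDTA after 100 min at ambient temperature. Inhibition curves gave IC50 values.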

[2] = target: GSK3b (GST-full length GSK3b) (Homo sapiens (Human), UniProt P49841); experiment: GSK3b TR-FRET kinase assay; format: biochemical
Sequence of GSK3b (GST-full length GSK3b) (P49841 whole entry): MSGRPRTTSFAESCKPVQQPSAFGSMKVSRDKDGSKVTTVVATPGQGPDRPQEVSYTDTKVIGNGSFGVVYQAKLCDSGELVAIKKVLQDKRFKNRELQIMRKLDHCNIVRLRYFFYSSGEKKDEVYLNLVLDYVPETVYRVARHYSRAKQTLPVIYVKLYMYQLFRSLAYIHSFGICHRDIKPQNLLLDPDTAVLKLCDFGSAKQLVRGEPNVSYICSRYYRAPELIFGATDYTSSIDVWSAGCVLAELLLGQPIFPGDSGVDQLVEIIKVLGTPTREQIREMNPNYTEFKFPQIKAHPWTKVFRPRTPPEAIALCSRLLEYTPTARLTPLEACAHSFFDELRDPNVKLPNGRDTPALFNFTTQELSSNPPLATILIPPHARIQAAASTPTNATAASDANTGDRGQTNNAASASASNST
Procedure, shortened: as §1

[3] = 1 nM GSK3α, 4 μM ATP, 30 minute preincubation, Table 16, read-out: GSK3-A TR-FRET BIOCHEMICAL (TR-FRET), IC50
[4] = 1 nM GSK3b, 2 μM ATP, 30 minute preincubation, Table 16, read-out: GSK3-B TR-FRET BIOCHEMICAL (TR-FRET), IC50
[5] = 1 nM GSK3α, 4 μM ATP, 30 minute preincubation, read-out: GSK3-A TR-FRET BIOCHEMICAL (TR-FRET), IC50
[6] = 1 nM GSK3b, 2 μM ATP, 30 minute preincubation, read-out: GSK3-B TR-FRET BIOCHEMICAL (TR-FRET), IC50
[7] = 1 nM GSK3α, 4 μM ATP, 30 minute preincubation, Table 16, read-out: GSK3-A TR-FRET BIOCHEMICAL (TR-FRET)
[8] = 1 nM GSK3b, 2 μM ATP, 30 minute preincubation, Table 16, read-out: GSK3-B TR-FRET BIOCHEMICAL (TR-FRET)

Sequence of GSK3α (GST-full length GSK3α) (P49840 whole entry, canonical isoform): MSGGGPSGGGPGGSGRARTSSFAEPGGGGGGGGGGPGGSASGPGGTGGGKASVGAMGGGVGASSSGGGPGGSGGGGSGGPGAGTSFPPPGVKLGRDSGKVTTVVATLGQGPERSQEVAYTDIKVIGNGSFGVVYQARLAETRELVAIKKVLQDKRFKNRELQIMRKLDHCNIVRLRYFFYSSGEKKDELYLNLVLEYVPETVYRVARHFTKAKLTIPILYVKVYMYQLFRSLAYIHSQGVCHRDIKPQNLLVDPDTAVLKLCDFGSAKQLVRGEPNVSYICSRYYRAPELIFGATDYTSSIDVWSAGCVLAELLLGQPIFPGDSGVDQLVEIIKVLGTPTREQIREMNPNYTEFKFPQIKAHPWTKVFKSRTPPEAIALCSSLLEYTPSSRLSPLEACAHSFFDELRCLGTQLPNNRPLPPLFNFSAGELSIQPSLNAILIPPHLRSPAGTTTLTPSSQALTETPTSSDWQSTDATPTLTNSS

CCN(c1cccnc1)c1cccc(C2(CC)C3=C(CC(C)(C)CC3=O)Nc3n[nH]cc32)c1 (centres unmarked) [Compound 917089]
IC50 [1, 3]: 100 to 1000 nM
IC50 [2, 4]: 1000 to 5000 nM

CC1(C)CC(=O)C2=C(C1)Nc1n[nH]cc1[C@]21COC2(CCC2)C1 [Compound 917128]
IC50 [1, 5]: 100 to 1000 nM
IC50 [2, 6]: 100 to 1000 nM

CC1(C)CC(=O)C2=C(C1)Nc1n[nH]cc1[C@@]21COC2(CCC2)C1 [Compound 917129]
IC50 [1, 5]: 100 to 1000 nM
IC50 [2, 6]: 100 to 1000 nM

CCCS(=O)(=O)c1cccc(C2(CC)C3=C(CC(C)(C)CC3=O)Nc3n[nH]cc32)c1 (centres unmarked) [Compound 917131]
IC50 [1, 3]: ≤ 100 nM
IC50 [2, 4]: ≤ 100 nM

CC1(C)CC2=C(C(=O)C1F)[C@]1(CC[C@H](C(F)(F)F)CC1)c1c[nH]nc1N2 (some centres unmarked) [Compound 917133]
IC50 [1, 7]: ≤ 100 nM
IC50 [2, 8]: ≤ 100 nM

CC1(C)CC2=C(C(=O)C1F)[C@]1(CC[C@@H](C(F)(F)F)CC1)c1c[nH]nc1N2 (some centres unmarked) [Compound 917134]
IC50 [1, 7]: ≤ 100 nM
IC50 [2, 8]: 100 to 1000 nM

CC1(C)CC(=O)C2=C(Nc3n[nH]cc3[C@]23CC[C@@H](C(F)(F)F)CC3)C1F (some centres unmarked) [Compound 917135]
IC50 [1, 7]: ≤ 100 nM
IC50 [2, 8]: 100 to 1000 nM

CC1(C)CC(=O)C2=C(Nc3n[nH]cc3[C@]23CC[C@H](C(F)(F)F)CC3)C1F (some centres unmarked) [Compound 917136]
IC50 [1, 7]: ≤ 100 nM
IC50 [2, 8]: 100 to 1000 nM

CC1(C)CC(=O)C2=C(C1)Nc1n[nH]cc1C21CCCN(S(=O)(=O)C2CC2)CC1 (centres unmarked) [Compound 917137]
IC50 [1, 7]: ≤ 100 nM
IC50 [2, 8]: ≤ 100 nM

Cn1ccc(S(=O)(=O)N2CCCC3(CC2)C2=C(CC(C)(C)CC2=O)Nc2n[nH]cc23)n1 (centres unmarked) [Compound 917138]
IC50 [1, 7]: ≤ 100 nM
IC50 [2, 8]: ≤ 100 nM

CC1(C)CC(=O)C2=C(C1)Nc1n[nH]cc1C21CN(S(=O)(=O)C2CCCC2)C1 [Compound 917139]
IC50 [1, 7]: ≤ 100 nM
IC50 ([1]; GSK3-A (TR-FRET 1 mM ATP), GMean, IC50, 1 mM ATP, geometric mean): 100 to 1000 nM
IC50 [2, 8]: ≤ 100 nM
IC50 ([2]; GSK3-B (TR-FRET 1 mM ATP), GMean, IC50, 1 mM ATP, geometric mean): 100 to 1000 nM

COc1cccc(S(=O)(=O)N2CCCC3(CC2)C2=C(CC(C)(C)CC2=O)Nc2n[nH]cc23)c1 (centres unmarked) [Compound 917140]
IC50 [1, 7]: ≤ 100 nM
IC50 [2, 8]: 100 to 1000 nM

COc1ccc(S(=O)(=O)N2CCCC3(CC2)C2=C(CC(C)(C)CC2=O)Nc2n[nH]cc23)cc1 (centres unmarked) [Compound 917141]
IC50 [1, 7]: ≤ 100 nM
IC50 [2, 8]: 100 to 1000 nM

COc1ccccc1S(=O)(=O)N1CCCC2(CC1)C1=C(CC(C)(C)CC1=O)Nc1n[nH]cc12 (centres unmarked) [Compound 917142]
IC50 [1, 7]: ≤ 100 nM
IC50 [2, 8]: 100 to 1000 nM

COc1ccc(S(=O)(=O)N2CCC3(CC2)C2=C(CC(C)(C)CC2=O)Nc2n[nH]cc23)cc1 [Compound 917143]
IC50 [1, 7]: ≤ 100 nM
IC50 [2, 8]: ≤ 100 nM

CC1(C)CC(=O)C2=C(C1)Nc1n[nH]cc1C21CN(S(=O)(=O)c2ccc(F)cc2)C1 [Compound 917144]
IC50 [1, 7]: ≤ 100 nM
IC50 [2, 8]: ≤ 100 nM

CC1(C)CC(=O)C2=C(C1)Nc1n[nH]cc1C21CCCN(c2ccncn2)CC1 (centres unmarked) [Compound 917145]
IC50 [1, 3]: 1000 to 5000 nM
IC50 [2, 4]: 1000 to 5000 nM

CCC1(c2cccc(N(C)c3ccnc(F)c3)c2)C2=C(CC(C)(C)CC2=O)Nc2n[nH]cc21 (centres unmarked) [Compound 917146]
IC50 [1, 3]: ≤ 100 nM
IC50 [2, 4]: ≤ 100 nM

CCc1cc(N(C)c2cccc(C3(CC)C4=C(CC(C)(C)CC4=O)Nc4n[nH]cc43)c2)ccn1 (centres unmarked) [Compound 917147]
IC50 [1, 3]: ≤ 100 nM
IC50 [2, 4]: 100 to 1000 nM

CCC1(c2cccc(N(C)c3ccnc(C)c3)c2)C2=C(CC(C)(C)CC2=O)Nc2n[nH]cc21 (centres unmarked) [Compound 917149]
IC50 [1, 3]: 100 to 1000 nM
IC50 [2, 4]: 1000 to 5000 nM

CCC1(c2cccc(S(=O)(=O)CC3CC3)c2)C2=C(CC(C)(C)CC2=O)Nc2n[nH]cc21 (centres unmarked) [Compound 917150]
IC50 [1, 3]: ≤ 100 nM
IC50 ([1]; read-out: GSK3-A (TR-FRET 1 mM ATP), GMean, IC50, 1 mM ATP, geometric mean): ≤ 100 nM
IC50 [2, 4]: ≤ 100 nM
IC50 ([2]; read-out: GSK3-B (TR-FRET 1 mM ATP), GMean, IC50, 1 mM ATP, geometric mean): 100 to 1000 nM

CC[C@@]1(c2cccc(S(=O)(=O)CC3CC3)c2)C2=C(CC(C)(C)CC2=O)Nc2n[nH]cc21 [Compound 917151]
IC50 [1, 3]: 1000 to 5000 nM
IC50 [2, 4]: > 5000 nM

CCC1(c2cccc(N(C)c3ccc(F)nc3)c2)C2=C(CC(C)(C)CC2=O)Nc2n[nH]cc21 (centres unmarked) [Compound 917152]
IC50 [1, 3]: ≤ 100 nM
IC50 [2, 4]: 100 to 1000 nM

CC[C@@]1(c2cccc(C(F)(F)F)c2)C2=C(CNC2=O)Nc2n[nH]cc21 [Compound 917157]
IC50 [1, 7]: > 5000 nM
IC50 [2, 8]: > 5000 nM

CCC1(c2cccc(C(F)(F)F)c2)C2=C(CNC2=O)Nc2n[nH]cc21 (centres unmarked) [Compound 917158]
IC50 [1, 7]: 100 to 1000 nM
IC50 [2, 8]: 1000 to 5000 nM

CCC1(c2cccc(C(F)(F)F)c2)C2=C(CN(Cc3ccccc3)C2=O)Nc2n[nH]cc21 (centres unmarked) [Compound 917159]
IC50 [1, 7]: ≤ 100 nM
IC50 [2, 8]: 100 to 1000 nM
